Experimental findings from ChEMBL document CHEMBL3616470, “Biological evaluation of angular disubstituted naphthoimidazoles as anti-inflammatory agents” (Bioorg Med Chem Lett, 2015) are described below.

The subject of data set [1] is RAW264.7. As to the kind of experiment: Antiinflammatory activity in mouse RAW264.7 cells assessed as inhibition of LPS-induced COX2 expression at 20 uM treated 30 mins before LPS stimulation measured after 24 hrs by Western blotting. It is filed as functional, cell-based. On the technique in general: In western blotting, separated proteins are transferred to a membrane and probed.

In data set [2] the test system is RAW264.7. As to the kind of experiment: Cytotoxicity against mouse RAW264.7 cells assessed as cell viability at 10 to 20 uM after 24 hrs by MTT assay. The note with it: raw264.7, 24 h. The format is cell-based. A general note: Tetrazolium dyes change colour on reduction, which living cells bring about.
Data set [3] concerns RAW264.7. As to the kind of experiment: Antiinflammatory activity in mouse RAW264.7 cells assessed as inhibition of LPS-induced NOS2 expression at 20 uM treated 30 mins before LPS stimulation measured after 24 hrs by Western blotting. It is filed as functional, cell-based.
Data set [4] deals with RAW264.7. As to the kind of experiment: Antiinflammatory activity in mouse RAW264.7 cells assessed as inhibition of LPS-induced COX2 expression at 10 to 20 uM treated 30 mins before LPS stimulation measured after 24 hrs by Western blotting. It is filed as functional, cell-based.
For data set [5], the system named is RAW264.7. As to the kind of experiment: Inhibition of NFkappaB activation in mouse RAW264.7 cells assessed as reduction of LPS-induced p65 level in nucleus at 20 uM treated 30 mins before LPS stimulation measured after 24 hrs by Western blotting. It is filed as cell-based.
Data set [6] concerns RAW264.7. As to the kind of experiment: Antiinflammatory activity in mouse RAW264.7 cells assessed as inhibition of LPS-induced nitric oxide production treated 30 mins before LPS stimulation measured after 24 hrs by Griess assay. The format is functional, cell-based. (In general: Nitrite, measured by Griess reagent, commonly stands in for NO production.)
Data set [7] has as its system RAW264.7. Briefly: Antiinflammatory activity in mouse RAW264.7 cells assessed as inhibition of LPS-induced NOS2 expression at 10 to 20 uM treated 30 mins before LPS stimulation measured after 24 hrs by Western blotting. The format is functional, cell-based.
Data set [8] deals with RAW264.7. As to the kind of experiment: Inhibition of NFkappaB activation in mouse RAW264.7 cells assessed as reduction of LPS-induced IkappaBbeta level in cytosol at 20 uM treated 30 mins before LPS stimulation measured after 24 hrs by Western blotting. The format is cell-based.
Data set [9] concerns RAW264.7. As to the kind of experiment: Inhibition of NFkappaB activation in mouse RAW264.7 cells assessed as reduction of LPS-induced IkappaBalpha level in cytosol at 20 uM treated 30 mins before LPS stimulation measured after 24 hrs by Western blotting. The format is cell-based.

What is called IC50 is the concentration that inhibits the measured activity by half.

The source made the active and inactive calls. The calls are words filed in the database; no cut-off is given here.

On to `COc1cc(-n2c(-c3ccccc3)nc3cc(OC)c4ccccc4c32)c(OC)c2ccccc12`, for which the inhibition result in the data set on RAW264.7 [1] and in the data set on RAW264.7 [3] was “inactive” throughout. In addition, the Activity entry in the data set with RAW264.7 [2] is reported as “Non-toxic”.
In the case of `COc1cc(-n2c(-c3cccnc3)nc3cc(OC)c4ccccc4c32)c(OC)c2ccccc12`, the inhibition result with RAW264.7 [4], in the data set with RAW264.7 [5], in the data set on RAW264.7 [7], in the data set on RAW264.7 [8] and with RAW264.7 [9] was “Active” throughout. For the same compound, the IC50 in the data set on RAW264.7 [6] amounted to 8.4 µM. For the same compound, in the data set with RAW264.7 [6], the inhibition result is “Dose-dependent effect”. Also, the Activity result in the data set on RAW264.7 [2] was “Non-toxic”.
`COc1cc2nc(-c3ccc([N+](=O)[O-])cc3)n(-c3ccccc3Br)c2c2ccccc12`: the Activity result in the data set on RAW264.7 [2] is recorded as “Non-toxic”.
As to `COc1cc(-n2c(-c3ccsc3)nc3cc(OC)c4ccccc4c32)c(OC)c2ccccc12`, the Activity entry in the data set with RAW264.7 [2] was “Non-toxic”.
For `COc1cc(-n2c(-c3cccc(F)c3)nc3cc(OC)c4ccccc4c32)c(OC)c2ccccc12`, the Activity result in the data set on RAW264.7 [2] is “Non-toxic”.
Same read-out and setting: under `COc1cc(-n2c(-c3ccc([N+](=O)[O-])cc3)nc3cc(OC)c4ccccc4c32)c(OC)c2ccccc12` stands “Non-toxic”.
